Source: ChEMBL document CHEMBL1138974 (Bioorg Med Chem Lett, 2006)
Active and inactive are the calls of the source. No cut-off for these calls is given here.

Assays:
[1] = Intrinsic clearance in rat microsome; assay type: ADME; conditions: microsomes
[2] = Intrinsic clearance in human microsome; assay type: ADME; conditions: microsomes
[3] = Ratio of drug level in brain against plasma in rat; assay type: ADME, organism-based; conditions: read-out: BPR
[4] = Oral bioavailability in rat; assay type: ADME, organism-based; conditions: in vivo
[5] = Clearance in rat; assay type: ADME, organism-based; conditions: in vivo
[6] = Volume of distribution in rat; assay type: ADME, organism-based; conditions: in vivo, read-out: Vss
[7] = Dissociation constant, pKa of the compound; assay type: physicochemical
[8] = target: T1, Sodium- and chloride-dependent glycine transporter 1 (Homo sapiens) (UniProt P48067); assay: (§1) Inhibition of [3H]glycine uptake at human GlyT1 by radiometric assay
T1 sequence (whole entry): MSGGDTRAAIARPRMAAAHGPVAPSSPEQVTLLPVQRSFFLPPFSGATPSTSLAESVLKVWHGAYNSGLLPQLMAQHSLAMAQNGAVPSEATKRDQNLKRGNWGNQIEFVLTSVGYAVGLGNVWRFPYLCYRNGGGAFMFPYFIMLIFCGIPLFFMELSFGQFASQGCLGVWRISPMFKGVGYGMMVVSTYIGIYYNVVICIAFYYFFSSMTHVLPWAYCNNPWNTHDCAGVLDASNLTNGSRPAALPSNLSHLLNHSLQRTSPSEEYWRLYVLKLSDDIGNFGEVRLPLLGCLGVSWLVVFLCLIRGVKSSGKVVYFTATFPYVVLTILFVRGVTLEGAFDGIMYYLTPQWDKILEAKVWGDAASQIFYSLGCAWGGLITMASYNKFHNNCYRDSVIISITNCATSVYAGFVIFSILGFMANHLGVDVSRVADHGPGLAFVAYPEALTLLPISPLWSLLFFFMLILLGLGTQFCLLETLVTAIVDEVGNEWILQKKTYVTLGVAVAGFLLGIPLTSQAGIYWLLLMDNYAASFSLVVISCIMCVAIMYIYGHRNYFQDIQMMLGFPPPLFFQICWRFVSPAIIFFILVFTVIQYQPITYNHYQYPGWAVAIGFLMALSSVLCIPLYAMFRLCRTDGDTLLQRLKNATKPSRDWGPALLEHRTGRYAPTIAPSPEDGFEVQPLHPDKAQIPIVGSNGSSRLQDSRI

[9] = target: T2, Sodium- and chloride-dependent glycine transporter 2 (Homo sapiens) (UniProt Q9Y345); assay: (§2) Inhibition of [3H]glycine uptake at human GlyT2 by radiometric assay
T2 sequence (whole entry): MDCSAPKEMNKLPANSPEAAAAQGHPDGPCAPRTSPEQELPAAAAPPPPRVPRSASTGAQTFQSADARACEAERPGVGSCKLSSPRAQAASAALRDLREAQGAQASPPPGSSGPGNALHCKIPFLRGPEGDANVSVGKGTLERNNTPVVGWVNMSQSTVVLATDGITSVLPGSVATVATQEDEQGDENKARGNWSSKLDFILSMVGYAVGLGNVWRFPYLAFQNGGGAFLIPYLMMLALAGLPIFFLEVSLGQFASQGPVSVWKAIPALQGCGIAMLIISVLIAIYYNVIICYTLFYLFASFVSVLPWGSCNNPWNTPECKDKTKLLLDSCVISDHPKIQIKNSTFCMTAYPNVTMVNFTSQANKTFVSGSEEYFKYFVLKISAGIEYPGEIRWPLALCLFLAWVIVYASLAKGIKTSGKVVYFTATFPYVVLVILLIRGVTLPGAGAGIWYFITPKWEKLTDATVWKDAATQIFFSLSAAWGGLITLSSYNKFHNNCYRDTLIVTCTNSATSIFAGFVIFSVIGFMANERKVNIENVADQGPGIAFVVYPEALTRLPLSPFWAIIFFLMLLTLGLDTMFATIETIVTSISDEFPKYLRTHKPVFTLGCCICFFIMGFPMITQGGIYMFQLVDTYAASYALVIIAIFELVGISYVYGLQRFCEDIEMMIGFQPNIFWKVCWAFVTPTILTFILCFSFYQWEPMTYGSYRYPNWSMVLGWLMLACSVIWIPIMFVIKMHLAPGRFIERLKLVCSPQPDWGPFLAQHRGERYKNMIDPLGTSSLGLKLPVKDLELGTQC

[10] = target: T3, Sodium- and chloride-dependent glycine transporter 1 (Homo sapiens, UniProt P48067); assay: as §1
T3 sequence (P48067 whole entry): T1 sequence (whole entry)

[11] = Intrinsic clearance in mouse microsome; assay type: ADME; conditions: microsomes
[12] = target: Voltage-gated inwardly rectifying potassium channel KCNH2 (Homo sapiens, UniProt Q12809); assay: Inhibition of hERG potassium channel expressed in CHO cells by whole cell patch clamp method; assay type: toxicity, cell-based
Chain of Voltage-gated inwardly rectifying potassium channel KCNH2 (Q12809 whole entry): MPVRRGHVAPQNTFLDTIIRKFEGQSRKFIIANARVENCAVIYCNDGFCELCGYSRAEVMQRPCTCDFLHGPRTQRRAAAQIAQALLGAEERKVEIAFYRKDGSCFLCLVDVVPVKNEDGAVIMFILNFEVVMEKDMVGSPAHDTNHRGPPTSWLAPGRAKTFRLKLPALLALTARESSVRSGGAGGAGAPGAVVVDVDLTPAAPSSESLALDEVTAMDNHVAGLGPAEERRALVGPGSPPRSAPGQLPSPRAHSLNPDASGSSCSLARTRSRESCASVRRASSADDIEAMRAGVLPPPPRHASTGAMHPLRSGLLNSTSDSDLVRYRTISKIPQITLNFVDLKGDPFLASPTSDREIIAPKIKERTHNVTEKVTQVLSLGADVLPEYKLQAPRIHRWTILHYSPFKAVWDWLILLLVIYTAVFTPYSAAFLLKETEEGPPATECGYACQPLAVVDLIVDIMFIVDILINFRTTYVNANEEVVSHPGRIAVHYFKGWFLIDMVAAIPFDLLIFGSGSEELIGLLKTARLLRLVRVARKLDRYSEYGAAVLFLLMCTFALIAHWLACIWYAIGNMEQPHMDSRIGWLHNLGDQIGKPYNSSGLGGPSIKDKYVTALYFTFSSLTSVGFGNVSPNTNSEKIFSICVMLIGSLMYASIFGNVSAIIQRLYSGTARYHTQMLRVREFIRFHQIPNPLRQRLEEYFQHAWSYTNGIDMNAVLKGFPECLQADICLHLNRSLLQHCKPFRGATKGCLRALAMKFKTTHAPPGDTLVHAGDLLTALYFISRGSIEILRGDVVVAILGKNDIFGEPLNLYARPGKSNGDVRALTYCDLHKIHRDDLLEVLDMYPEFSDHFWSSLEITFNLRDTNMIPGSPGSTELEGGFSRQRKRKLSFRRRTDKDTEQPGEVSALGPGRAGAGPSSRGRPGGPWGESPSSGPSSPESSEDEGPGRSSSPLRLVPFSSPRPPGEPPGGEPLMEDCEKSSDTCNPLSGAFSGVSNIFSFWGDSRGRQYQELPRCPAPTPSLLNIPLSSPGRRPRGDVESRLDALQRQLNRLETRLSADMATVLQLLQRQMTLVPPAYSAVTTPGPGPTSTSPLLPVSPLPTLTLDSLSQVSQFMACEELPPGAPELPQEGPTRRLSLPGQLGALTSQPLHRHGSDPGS

[13] = target: T4, Sodium- and chloride-dependent glycine transporter 2 (Homo sapiens, UniProt Q9Y345); assay: as §2
T4 sequence (Q9Y345 whole entry): T2 sequence (whole entry)

Nociceptin receptor = Nociceptin receptor (Homo sapiens, UniProt P41146); assay: Displacement of [3H]NOP from human NOP receptors expressed in HEK293 cells; assay type: cell-based; conditions: hek293
Chain of Nociceptin receptor (P41146 whole entry): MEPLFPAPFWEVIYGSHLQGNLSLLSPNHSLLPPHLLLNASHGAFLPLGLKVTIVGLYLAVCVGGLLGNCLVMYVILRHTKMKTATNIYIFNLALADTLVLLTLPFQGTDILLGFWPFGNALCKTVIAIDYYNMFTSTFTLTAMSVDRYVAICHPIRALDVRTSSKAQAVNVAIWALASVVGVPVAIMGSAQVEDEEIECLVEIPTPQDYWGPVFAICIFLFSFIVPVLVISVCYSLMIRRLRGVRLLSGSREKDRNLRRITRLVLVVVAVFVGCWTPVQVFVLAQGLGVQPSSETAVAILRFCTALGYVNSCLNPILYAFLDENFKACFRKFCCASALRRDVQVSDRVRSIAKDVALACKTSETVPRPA

[14] = Oral bioavailability in mouse; assay type: ADME, organism-based; conditions: in vivo
[15] = Clearance in mouse; assay type: ADME, organism-based; conditions: in vivo
[16] = Volume of distribution in mouse; assay type: ADME, organism-based; conditions: in vivo, read-out: Vss

Activity [8] [nM] | Activity [9] | SMILES | microsomal CLint [1] [µL/min/mg] | microsomal CLint [2] [µL/min/mg] | Kp [3] | bioavailability [4] [%] | clearance [5] [mL/min/kg] | Vd [6] [L/kg] | pKa [7] | EC50 [10] [nM] | microsomal CLint [11] [µL/min/mg] | IC50 [12] [nM] | EC50 [13] [µM] | IC50 (Nociceptin receptor) [µM] | bioavailability [14] [%] | clearance [15] [mL/min/kg] | Vd [16] [L/kg]
– | – | O=C1NCN(c2ccccc2)C12CCN(C1CCCCC1c1ccccc1)CC2 (stereo not given) | 240 | 68 | 1.6 | 8 | 120 | 7.3 | – | – | – | – | – | – | – | – | –
91 | inactive | O=C1NCC(c2ccc(F)cc2)C12CCN(C1CCCCC1(O)c1ccccc1)CC2 (stereo not given) | – | – | – | – | – | – | 6.89 | – | – | – | – | – | – | – | –
– | – | O=C1NCN(c2ccccc2)C12CCN(C1CCCCC1(O)c1ccc(F)cc1)CC2 (stereo not given) | 499 | 78 | – | – | – | – | – | 24 | – | – | – | – | – | – | –
– | – | O=C1NCC(c2ccccc2)C12CCN(C1CCCCC1(O)c1ccc(F)cc1)CC2 (single isomer, unassigned; diastereomer 1) | – | 44 | – | – | – | – | 8.54 | 70 | 13 | 1800 | > 30 | > 10 | – | – | –
– | – | O=C1NC[C@@H](c2ccccc2)C12CCN(C1CCCCC1c1ccccc1)CC2 (stereo in doubt; 27) | – | 23 | 5.2 | – | 63 | 4.3 | 8.85 | 61 | 36 | 1400 | – | – | 27 | 99 | 8.9
